Test results taken from US9006487B2, “Amine-containing lipids and uses thereof” (Massachusetts Institute of Technology, priority 2005, dated 2015).
Several values for one entry are separate records, joined by “and”; a condition that tells them apart may be missing. Equal values may be shown once.

Test system: not listed separately
Test: DNA delivery: raw luciferase expression (relative light units) of best-transfecting lipids
Type: cell-based
Settings: lipid/DNA 2.5 w/w; 300 ng of DNA per well
Experimental: Raw values for luciferase expression (relative lights units) of best-transfecting lipids at lipid/DNA (w/w) ratios listed. 300 ng of DNA was added per well.

Structure (SMILES) | Raw values for luciferase expression
CCCCCCCCCCCCNC(=O)CCN(C)CCN(CCC(=O)NCCCCCCCCCCCC)CCC(=O)NCCCCCCCCCCCC [ND95] | 2875811 relative lights units
CCCCCCCCCCCCNC(=O)CCN(CCC(=O)NCCCCCCCCCCCC)CCN(CCC(=O)NCCCCCCCCCCCC)CCN(CCC(=O)NCCCCCCCCCCCC)CCN(CCC(=O)NCCCCCCCCCCCC)CCC(=O)NCCCCCCCCCCCC [ND98] | 5649897 relative lights units and 6947385 relative lights units

Same assay, conditions: lipid/DNA 5 w/w; 300 ng of DNA per well

Raw values for luciferase expression | Structure (SMILES)
4619654 relative lights units | CCCCCCCCCCCCNC(=O)CCN(C)CCN(CCC(=O)NCCCCCCCCCCCC)CCC(=O)NCCCCCCCCCCCC [ND95]

Same assay, conditions: lipid/DNA 10 w/w; 300 ng of DNA per well

Raw values for luciferase expression | Structure (SMILES)
7977064 relative lights units | CCCCCCCCCCCCNC(=O)CCN(C)CCN(CCC(=O)NCCCCCCCCCCCC)CCC(=O)NCCCCCCCCCCCC [ND95]
1824773 relative lights units | CCCCCCCCCCCCNC(=O)CCN(CCC(=O)NCCCCCCCCCCCC)CCN(CCC(=O)NCCCCCCCCCCCC)CCN(CCC(=O)NCCCCCCCCCCCC)CCN(CCC(=O)NCCCCCCCCCCCC)CCC(=O)NCCCCCCCCCCCC [ND98]

Same assay, conditions: lipid/DNA 15 w/w; 300 ng of DNA per well

Raw values for luciferase expression | Structure (SMILES)
10279185 relative lights units | CCCCCCCCCCCCNC(=O)CCN(C)CCN(CCC(=O)NCCCCCCCCCCCC)CCC(=O)NCCCCCCCCCCCC [ND95]
643862 relative lights units | CCCCCCCCCCCCNC(=O)CCN(CCC(=O)NCCCCCCCCCCCC)CCN(CCC(=O)NCCCCCCCCCCCC)CCN(CCC(=O)NCCCCCCCCCCCC)CCN(CCC(=O)NCCCCCCCCCCCC)CCC(=O)NCCCCCCCCCCCC [ND98]

Test system: cos-7 cells
Test: DNA transfection: luciferase expression relative to Lipofectamine 2000
Type: cell-based
Settings: lipid/DNA 2.5 w/w; 300 ng of DNA per well
Summary of the method: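 Lipid/DNA complexes, 300 ng luciferase DNA per well at 2.5-25 w/w lipid:DNA, were formed in sodium acetate/Optimem and added to overnight-seeded cos-7 cells. Luciferase was measured by Bright-Glo luminescence after 48 hours and quantified against an enzyme standard curve. Values are expressed as % of Lipofectamine 2000 at 2.5 w/w.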

Structure (SMILES) | luciferase expression (second part of table, values relative to LIPO2000)
CCCCCCCCCCCCNC(=O)CCN(C)CCN(CCC(=O)NCCCCCCCCCCCC)CCC(=O)NCCCCCCCCCCCC [ND95] | 11.3
CCCCCCCCCCCCNC(=O)CCN(CCC(=O)NCCCCCCCCCCCC)CCN(CCC(=O)NCCCCCCCCCCCC)CCN(CCC(=O)NCCCCCCCCCCCC)CCN(CCC(=O)NCCCCCCCCCCCC)CCC(=O)NCCCCCCCCCCCC [ND98] | 22.2

Same assay, conditions: lipid/DNA 5 w/w; 300 ng of DNA per well

Structure (SMILES) | luciferase expression (second part of table, values relative to LIPO2000)
CCCCCCCCCCCCNC(=O)CCN(C)CCN(CCC(=O)NCCCCCCCCCCCC)CCC(=O)NCCCCCCCCCCCC [ND95] | 30.9
CCCCCCCCCCCCNC(=O)CCN(CCC(=O)NCCCCCCCCCCCC)CCN(CCC(=O)NCCCCCCCCCCCC)CCN(CCC(=O)NCCCCCCCCCCCC)CCN(CCC(=O)NCCCCCCCCCCCC)CCC(=O)NCCCCCCCCCCCC [ND98] | 5.3

Same assay, conditions: lipid/DNA 10 w/w; 300 ng of DNA per well

Structure (SMILES) | luciferase expression (second part of table, values relative to LIPO2000)
CCCCCCCCCCCCNC(=O)CCN(C)CCN(CCC(=O)NCCCCCCCCCCCC)CCC(=O)NCCCCCCCCCCCC [ND95] | 37.6
CCCCCCCCCCCCNC(=O)CCN(CCC(=O)NCCCCCCCCCCCC)CCN(CCC(=O)NCCCCCCCCCCCC)CCN(CCC(=O)NCCCCCCCCCCCC)CCN(CCC(=O)NCCCCCCCCCCCC)CCC(=O)NCCCCCCCCCCCC [ND98] | 0.5

Same assay, conditions: lipid/DNA 15 w/w; 300 ng of DNA per well

Structure (SMILES) | luciferase expression (second part of table, values relative to LIPO2000)
CCCCCCCCCCCCNC(=O)CCN(C)CCN(CCC(=O)NCCCCCCCCCCCC)CCC(=O)NCCCCCCCCCCCC [ND95] | 53.4
CCCCCCCCCCCCNC(=O)CCN(CCC(=O)NCCCCCCCCCCCC)CCN(CCC(=O)NCCCCCCCCCCCC)CCN(CCC(=O)NCCCCCCCCCCCC)CCN(CCC(=O)NCCCCCCCCCCCC)CCC(=O)NCCCCCCCCCCCC [ND98] | 0.4

Same assay, conditions: lipid/DNA 20 w/w; 300 ng of DNA per well

Structure (SMILES) | luciferase expression (second part of table, values relative to LIPO2000)
CCCCCCCCCCCCNC(=O)CCN(C)CCN(CCC(=O)NCCCCCCCCCCCC)CCC(=O)NCCCCCCCCCCCC [ND95] | 37.8
CCCCCCCCCCCCNC(=O)CCN(CCC(=O)NCCCCCCCCCCCC)CCN(CCC(=O)NCCCCCCCCCCCC)CCN(CCC(=O)NCCCCCCCCCCCC)CCN(CCC(=O)NCCCCCCCCCCCC)CCC(=O)NCCCCCCCCCCCC [ND98] | 0.4

Same assay, conditions: lipid/DNA 25 w/w; 300 ng of DNA per well

Structure (SMILES) | luciferase expression (second part of table, values relative to LIPO2000)
CCCCCCCCCCCCNC(=O)CCN(C)CCN(CCC(=O)NCCCCCCCCCCCC)CCC(=O)NCCCCCCCCCCCC [ND95] | 54.0
CCCCCCCCCCCCNC(=O)CCN(CCC(=O)NCCCCCCCCCCCC)CCN(CCC(=O)NCCCCCCCCCCCC)CCN(CCC(=O)NCCCCCCCCCCCC)CCN(CCC(=O)NCCCCCCCCCCCC)CCC(=O)NCCCCCCCCCCCC [ND98] | 0.3

Same assay, conditions: replicate set, 1st column; no head printed (2.5 w/w by the raw values)

Structure (SMILES) | luciferase expression, second set of columns (replicate set of data)
CCCCCCCCCCCCNC(=O)CCN(CCC(=O)NCCCCCCCCCCCC)CCN(CCC(=O)NCCCCCCCCCCCC)CCN(CCC(=O)NCCCCCCCCCCCC)CCN(CCC(=O)NCCCCCCCCCCCC)CCC(=O)NCCCCCCCCCCCC [ND98] | 78.4

Same assay, conditions: replicate set, 2nd column; no head printed (5 w/w by the raw values)

Structure (SMILES) | luciferase expression, second set of columns (replicate set of data)
CCCCCCCCCCCCNC(=O)CCN(CCC(=O)NCCCCCCCCCCCC)CCN(CCC(=O)NCCCCCCCCCCCC)CCN(CCC(=O)NCCCCCCCCCCCC)CCN(CCC(=O)NCCCCCCCCCCCC)CCC(=O)NCCCCCCCCCCCC [ND98] | 65.8

Same assay, conditions: replicate set, 3rd column; no head printed (10 w/w by the raw values)

Structure (SMILES) | luciferase expression, second set of columns (replicate set of data)
CCCCCCCCCCCCNC(=O)CCN(CCC(=O)NCCCCCCCCCCCC)CCN(CCC(=O)NCCCCCCCCCCCC)CCN(CCC(=O)NCCCCCCCCCCCC)CCN(CCC(=O)NCCCCCCCCCCCC)CCC(=O)NCCCCCCCCCCCC [ND98] | 26.0

Same assay, conditions: replicate set, 4th column; no head printed (15 w/w by the raw values)

Structure (SMILES) | luciferase expression, second set of columns (replicate set of data)
CCCCCCCCCCCCNC(=O)CCN(CCC(=O)NCCCCCCCCCCCC)CCN(CCC(=O)NCCCCCCCCCCCC)CCN(CCC(=O)NCCCCCCCCCCCC)CCN(CCC(=O)NCCCCCCCCCCCC)CCC(=O)NCCCCCCCCCCCC [ND98] | 9.2

Test system: renilla and firefly luciferases
Test: siRNA delivery: reporter-protein (renilla luciferase) knockdown relative to Lipofectamine 2000, firefly luciferase as viability control
Type: cell-based
Settings: lipid/RNA 2.5 w/w; 50 ng of siRNA per well
Experimental: Reporter-protein knockdown achieved by the top transfecting lipids relative to Lipofectamine™ 2000 (where negative values indicate improved knockdown). The assay accounts for toxicity, monitoring expression of both renilla and firefly luciferases, where the latter serves as viability control. For each lipid, 50 ng of siRNA was added per well at specific lipid/RNA w/w ratios (from top to bottom: 2.5, 5, 10, 15).

Structure (SMILES) | Reporter-protein knockdown relative to Lipofectamine 2000 (negative values indicate improved knockdown)
CCCCCCCCCCCCNC(=O)CCN(C)CCN(CCC(=O)NCCCCCCCCCCCC)CCC(=O)NCCCCCCCCCCCC [ND95] | 19.8058
CCCCCCCCCCCCNC(=O)CCN(CCC(=O)NCCCCCCCCCCCC)CCN(CCC(=O)NCCCCCCCCCCCC)CCN(CCC(=O)NCCCCCCCCCCCC)CCN(CCC(=O)NCCCCCCCCCCCC)CCC(=O)NCCCCCCCCCCCC [ND98] | −4.005

Same assay, conditions: lipid/RNA 5 w/w; 50 ng of siRNA per well

Structure (SMILES) | Reporter-protein knockdown relative to Lipofectamine 2000 (negative values indicate improved knockdown)
CCCCCCCCCCCCNC(=O)CCN(C)CCN(CCC(=O)NCCCCCCCCCCCC)CCC(=O)NCCCCCCCCCCCC [ND95] | 8.319
CCCCCCCCCCCCNC(=O)CCN(CCC(=O)NCCCCCCCCCCCC)CCN(CCC(=O)NCCCCCCCCCCCC)CCN(CCC(=O)NCCCCCCCCCCCC)CCN(CCC(=O)NCCCCCCCCCCCC)CCC(=O)NCCCCCCCCCCCC [ND98] | −4.482

Same assay, conditions: lipid/RNA 10 w/w; 50 ng of siRNA per well

Structure (SMILES) | Reporter-protein knockdown relative to Lipofectamine 2000 (negative values indicate improved knockdown)
CCCCCCCCCCCCNC(=O)CCN(C)CCN(CCC(=O)NCCCCCCCCCCCC)CCC(=O)NCCCCCCCCCCCC [ND95] | −5.205
CCCCCCCCCCCCNC(=O)CCN(CCC(=O)NCCCCCCCCCCCC)CCN(CCC(=O)NCCCCCCCCCCCC)CCN(CCC(=O)NCCCCCCCCCCCC)CCN(CCC(=O)NCCCCCCCCCCCC)CCC(=O)NCCCCCCCCCCCC [ND98] | −4.634

Same assay, conditions: lipid/RNA 15 w/w; 50 ng of siRNA per well

Structure (SMILES) | Reporter-protein knockdown relative to Lipofectamine 2000 (negative values indicate improved knockdown)
CCCCCCCCCCCCNC(=O)CCN(C)CCN(CCC(=O)NCCCCCCCCCCCC)CCC(=O)NCCCCCCCCCCCC [ND95] | −7.163
CCCCCCCCCCCCNC(=O)CCN(CCC(=O)NCCCCCCCCCCCC)CCN(CCC(=O)NCCCCCCCCCCCC)CCN(CCC(=O)NCCCCCCCCCCCC)CCN(CCC(=O)NCCCCCCCCCCCC)CCC(=O)NCCCCCCCCCCCC [ND98] | −13.9514
